Results reported in patent publication US11547681B2, “N-acylethanolamide derivatives and uses thereof” (ELIEM THERAPEUTICS, INC., priority 2016, dated 2023).

Test: in vitro
Conditions: for Concentration (μM) of analyte PEA, 0 min / Concentration (μM) of analyte PEA, 10 min / Concentration (μM) of analyte PEA, 20 min / Concentration (μM) of analyte PEA, 30 min / Concentration (μM) of analyte PEA, 60 min / % Remaining of Initial (n = 1), 0 min / % Remaining of Initial (n = 1), 10 min / % Remaining of Initial (n = 1), 20 min / % Remaining of Initial (n = 1), 30 min / % Remaining of Initial (n = 1), 60 min: 1 μM; for % Remaining of Initial (n = 1), 0 min: s9, 0 h; for % Remaining of Initial (n = 1), 10 min: s9, 10 min; for % Remaining of Initial (n = 1), 20 min: s9, 20 min; for % Remaining of Initial (n = 1), 30 min: s9, 0.5 h; for % Remaining of Initial (n = 1), 60 min: s9, 1 h; for half-life at 1 μM: s9, Half-life (min)
Procedure: Reaction mixture, minus cofactors, was prepared as described below. Test article was added into the reaction mixture at a final concentration of 1 μM. […] An aliquot of the reaction mixture (without cofactor cocktail) was equilibrated in a shaking water bath at 37° C. for 3 minutes. The reaction was initiated by the addition of cofactor cocktail (see below), and the mixture was then incubated in a shaking water bath at 37° C. Aliquots (100 μL) were withdrawn 0, 10, 20, 30 and 60 minutes. Test article samples were immediately combined with 300 μL of ice-cold acetonitrile containing 1% formic acid. Control samples were immediately combined with 400 μL of ice-cold 50/50 acetonitrile (ACN)/dH2O containing 0.1% formic acid and internal standard to terminate the reaction. Samples were then mixed and centrifuged to precipitate proteins. Calibration standards were prepared in matched matrix. Samples and standards were assayed by LC-MS/MS using electrospray ionization for both the dosed prodrug and the expected drug (PEA). Analytical conditions are outlined in Appendix 8-1. Test article concentration at each time point was compared to the test article concentration at time 0 to determine the percent remaining at each time point. Half-lives were calculated using GraphPad software, fitting to a single-phase exponential decay equation.
Reaction mixture, minus cofactors, was prepared as described below. Test article was added into the reaction mixture at a final concentration of 1 μM. […] An aliquot of the reaction mixture (without cofactor cocktail) was equilibrated in a shaking water bath at 37° C. for 5 minutes. Reaction was initiated by the addition of cofactor cocktail (see below), and mixture was then incubated in a shaking water bath at 37° C. Aliquots (100 μL) were withdrawn at 0, 10, 20, 30, and 60 minutes. Test article samples were immediately combined with 300 μL of ice-cold acetonitrile containing 1% formic acid. Control samples were immediately combined with 400 μL of ice-cold 50/50 acetonitrile (ACN)/dH2O containing 0.1% formic acid and internal standard to terminate the reaction. Samples were then mixed and centrifuged to precipitate proteins. Calibration standards were prepared in matched matrix. Samples and standards were assayed by LC-MS/MS using electrospray ionization for both dosed prodrug and expected drug (PEA). Analytical conditions are outlined in Appendix 10-1. Test article concentration at each time point was compared to test article concentration at time 0 to determine the percent remaining at each time point. Half-lives were calculated using GraphPad software, fitting to a single-phase exponential decay equation.
The reaction mixture, minus cofactors, was prepared as described below. Test article was added into the reaction mixture at a final concentration of 1 μM. […] An aliquot of the reaction mixture (without cofactor cocktail) was equilibrated in a shaking water bath at 37° C. for 3 minutes. Reaction was initiated by the addition of cofactor cocktail (see below), and the mixture was then incubated in a shaking water bath at 37° C. Aliquots (100 μL) were withdrawn at 0, 10, 20, 30, and 60 minutes. Test article samples were immediately combined with 300 μL of ice-cold acetonitrile containing 1% formic acid. Control samples were immediately combined with 400 μL of ice-cold 50/50 acetonitrile (ACN)/dH2O containing 0.1% formic acid and internal standard to terminate the reaction. Samples were then mixed and centrifuged to precipitate proteins. Calibration standards were prepared in matched matrix. Samples and standards were assayed by LC-MS/MS using electrospray ionization for both dosed prodrug and expected drug (PEA). Analytical conditions are outlined in Appendix 13-1. Test article concentration at each time point was compared to the test article concentration at time 0 to determine the percent remaining at each time point.

Concentration (μM) of analyte PEA, 0 min (both, human): 0.014 µM
Concentration (μM) of analyte PEA, 10 min (both, human): 0.037 µM
Concentration (μM) of analyte PEA, 20 min (both, human): 0.022 µM
Concentration (μM) of analyte PEA, 30 min (both, human): 0.022 µM
Concentration (μM) of analyte PEA, 60 min (both, human): 0.016 µM
% Remaining of Initial (n = 1), 0 min (both, human): 100%
% Remaining of Initial (n = 1), 10 min (both, human): 80%
% Remaining of Initial (n = 1), 20 min (both, human): 102%
% Remaining of Initial (n = 1), 30 min (both, human): 95%
% Remaining of Initial (n = 1), 60 min (both, human): 77%
half-life at 1 μM (both, human): > 1 h
Concentration (μM) of analyte PEA, 0 min (male, Beagle, dog): 0.016 µM
Concentration (μM) of analyte PEA, 10 min (male, Beagle, dog): 0.044 µM
Concentration (μM) of analyte PEA, 20 min (male, Beagle, dog): 0.041 µM
Concentration (μM) of analyte PEA, 30 min (male, Beagle, dog): 0.049 µM
Concentration (μM) of analyte PEA, 60 min (male, Beagle, dog): 0.037 µM
% Remaining of Initial (n = 1), 0 min (male, Beagle, dog): 100%
% Remaining of Initial (n = 1), 10 min (male, Beagle, dog): 101%
% Remaining of Initial (n = 1), 20 min (male, Beagle, dog): 106%
% Remaining of Initial (n = 1), 30 min (male, Beagle, dog): 102%
% Remaining of Initial (n = 1), 60 min (male, Beagle, dog): 110%
half-life at 1 μM (male, Beagle, dog): > 1 h
Concentration (μM) of analyte PEA, 0 min (male, CD-1, mouse): 0.030 µM
Concentration (μM) of analyte PEA, 10 min (male, CD-1, mouse): 0.041 µM
Concentration (μM) of analyte PEA, 20 min (male, CD-1, mouse): 0.033 µM
Concentration (μM) of analyte PEA, 30 min (male, CD-1, mouse): 0.031 µM
Concentration (μM) of analyte PEA, 60 min (male, CD-1, mouse): 0.015 µM
% Remaining of Initial (n = 1), 0 min (male, CD-1, mouse): 100%
% Remaining of Initial (n = 1), 10 min (male, CD-1, mouse): 87%
% Remaining of Initial (n = 1), 20 min (male, CD-1, mouse): 87%
% Remaining of Initial (n = 1), 30 min (male, CD-1, mouse): 99%
% Remaining of Initial (n = 1), 60 min (male, CD-1, mouse): 75%
half-life at 1 μM (male, CD-1, mouse): > 1 h
Concentration (μM) of analyte PEA, 0 min (male, Sprague-Dawley, rat): 0.020 µM
Concentration (μM) of analyte PEA, 10 min (male, Sprague-Dawley, rat): 0.035 µM
Concentration (μM) of analyte PEA, 20 min (male, Sprague-Dawley, rat): 0.021 µM
Concentration (μM) of analyte PEA, 30 min (male, Sprague-Dawley, rat): 0.021 µM
Concentration (μM) of analyte PEA, 60 min (male, Sprague-Dawley, rat): 0.013 µM
% Remaining of Initial (n = 1), 0 min (male, Sprague-Dawley, rat): 100%
% Remaining of Initial (n = 1), 10 min (male, Sprague-Dawley, rat): 64%
% Remaining of Initial (n = 1), 20 min (male, Sprague-Dawley, rat): 82%
% Remaining of Initial (n = 1), 30 min (male, Sprague-Dawley, rat): 93%
% Remaining of Initial (n = 1), 60 min (male, Sprague-Dawley, rat): 89%
half-life at 1 μM (male, Sprague-Dawley, rat): > 1 h
SMILES: CCCCC/C=C\C/C=C\CCCCCCCC(=O)OCCNC(=O)CCCCCCCCCCCCCCC [Compound I-6]
